Data: US9790210B2, “N-(monocyclic aryl),N'-pyrazolyl-urea, thiourea, guanidine and cyanoguanidine compounds as TrkA kinase inhibitors” (Array BioPharma Inc., priority 2012, dated 2017)

Legend:
Experiment in all cases: KinaseProfiler
Format in all cases: biochemical
Conditions in all cases: 10 μM, ATP near Km
CDK1/cyclinB = molecular target: T1, CDK1/cyclinB (Homo sapiens, UniProt P06493)
T1 construct: purchased Millipore (KinaseProfiler service)
Procedure: (§1) A representative compound (Example 15) of the invention was tested for off-target kinase activity at a concentration of 10 μM by Millipore, Inc. in their KinaseProfiler™ service against all the kinases available in their full kinase panel. The compound was run in duplicate at a concentration of ATP near the Km for each individual kinase according to Millipore's specifications. The results are shown in Table B. Data are reported as percent of control (POC) and are the average of the two replicates.

p38beta = molecular target: T2, p38beta (Homo sapiens, UniProt Q15759)
T2 construct: purchased Millipore, Inc. (KinaseProfiler service)
Procedure: as §1

PRKG1alpha = molecular target: T3, PRKG1alpha (Homo sapiens, UniProt Q13976)
T3 construct: purchased Millipore, Inc. (KinaseProfiler service)
Procedure: as §1

CAMK4 = molecular target: T4, CAMK4 (Homo sapiens, UniProt Q16566)
T4 construct: purchased Millipore (KinaseProfiler service)
Procedure: as §1

CDK6/cyclinD3 = molecular target: T5, CDK6/cyclinD3 (Homo sapiens, UniProt Q00534)
T5 construct: purchased Millipore, Inc. (KinaseProfiler service)
Procedure: as §1

MST2 = molecular target: T6, MST2 (Homo sapiens, UniProt Q13188)
T6 construct: purchased Millipore, Inc. (KinaseProfiler service)
Procedure: as §1

SRPK2 = molecular target: T7, SRPK2 (Homo sapiens, UniProt P78362)
T7 construct: purchased Millipore, Inc. (KinaseProfiler service)
Procedure: as §1

PKCeta = molecular target: T8, PKCeta (Homo sapiens, UniProt P24723)
T8 construct: purchased Millipore, Inc. (KinaseProfiler service)
Procedure: as §1

KDR = molecular target: T9, KDR (Homo sapiens, UniProt P35968)
T9 construct: purchased Millipore, Inc. (KinaseProfiler service)
Procedure: as §1

MARK1 = molecular target: T10, MARK1 (Homo sapiens, UniProt Q9P0L2)
T10 construct: purchased Millipore, Inc. (KinaseProfiler service)
Procedure: as §1

HIPK2 = molecular target: T11, HIPK2 (Homo sapiens, UniProt Q9H2X6)
T11 construct: purchased Millipore, Inc. (KinaseProfiler service)
Procedure: as §1

RIPK2 = molecular target: T12, RIPK2 (Homo sapiens, UniProt O43353)
T12 construct: purchased Millipore, Inc. (KinaseProfiler service)
Procedure: as §1

Haspin = molecular target: T13, Haspin (Homo sapiens, UniProt Q8TF76)
T13 construct: purchased Millipore, Inc. (KinaseProfiler service)
Procedure: as §1

MINK = molecular target: T14, MINK (Homo sapiens, UniProt Q8N4C8)
T14 construct: purchased Millipore, Inc. (KinaseProfiler service)
Procedure: as §1

PAK5 = molecular target: T15, PAK5 (Homo sapiens, UniProt Q9P286)
T15 construct: purchased Millipore, Inc. (KinaseProfiler service)
Procedure: as §1

ROCK-I = molecular target: T16, ROCK-I (Homo sapiens, UniProt Q13464)
T16 construct: purchased Millipore, Inc. (KinaseProfiler service)
Procedure: as §1

AKT3 = molecular target: T17, AKT3 (Homo sapiens, UniProt Q9Y243)
T17 construct: purchased Millipore (KinaseProfiler service)
Procedure: as §1

PDGFRalpha = molecular target: T18, PDGFRalpha (Homo sapiens, UniProt P16234)
T18 construct: purchased Millipore, Inc. (KinaseProfiler service)
Procedure: as §1

FGFR3 = molecular target: T19, FGFR3 (Homo sapiens, UniProt P22607)
T19 construct: purchased Millipore, Inc. (KinaseProfiler service)
Procedure: as §1

WNK3 = molecular target: T20, WNK3 (Homo sapiens, UniProt Q9BYP7)
T20 construct: purchased Millipore, Inc. (KinaseProfiler service)
Procedure: as §1

MKK6 = molecular target: T21, MKK6 (Homo sapiens, UniProt P52564)
T21 construct: purchased Millipore, Inc. (KinaseProfiler service)
Procedure: as §1

PAK4 = molecular target: T22, PAK4 (Homo sapiens, UniProt O96013)
T22 construct: purchased Millipore, Inc. (KinaseProfiler service)
Procedure: as §1

EphB2 = molecular target: T23, EphB2 (Homo sapiens, UniProt P29323)
T23 construct: purchased Millipore, Inc. (KinaseProfiler service)
Procedure: as §1

CK1_y = tested on: CK1_y
Procedure: as §1

EphA4 = molecular target: T24, EphA4 (Homo sapiens, UniProt P54764)
T24 construct: purchased Millipore, Inc. (KinaseProfiler service)
Procedure: as §1

CAMK1d = molecular target: T25, CAMK1d (Homo sapiens, UniProt Q8IU85)
T25 construct: purchased Millipore (KinaseProfiler service)
Procedure: as §1

MLK1 = molecular target: T26, MLK1 (Homo sapiens, UniProt P80192)
T26 construct: purchased Millipore, Inc. (KinaseProfiler service)
Procedure: as §1

CDK9/cyclinT1 = molecular target: T27, CDK9/cyclinT1 (Homo sapiens, UniProt P50750)
T27 construct: purchased Millipore, Inc. (KinaseProfiler service)
Procedure: as §1

TrkB = molecular target: T28, TrkB (Homo sapiens, UniProt Q16620)
T28 construct: purchased Millipore, Inc. (KinaseProfiler service)
Procedure: as §1

PASK = molecular target: T29, PASK (Homo sapiens, UniProt Q96RG2)
T29 construct: purchased Millipore, Inc. (KinaseProfiler service)
Procedure: as §1

NEK6 = molecular target: T30, NEK6 (Homo sapiens, UniProt Q9HC98)
T30 construct: purchased Millipore, Inc. (KinaseProfiler service)
Procedure: as §1

LKB1 = molecular target: T31, LKB1 (Homo sapiens, UniProt Q15831)
T31 construct: purchased Millipore, Inc. (KinaseProfiler service)
Procedure: as §1

MAPKAP-K2 = molecular target: T32, MAPKAP-K2 (Homo sapiens, UniProt P49137)
T32 construct: purchased Millipore, Inc. (KinaseProfiler service)
Procedure: as §1

HIPK3 = molecular target: T33, HIPK3 (Homo sapiens, UniProt Q9H422)
T33 construct: purchased Millipore, Inc. (KinaseProfiler service)
Procedure: as §1

CAMK2b = molecular target: T34, CAMK2b (Homo sapiens, UniProt Q13554)
T34 construct: purchased Millipore (KinaseProfiler service)
Procedure: as §1

CDK2/cyclinE = molecular target: T35, CDK2/cyclinE (Homo sapiens, UniProt P24941)
T35 construct: purchased Millipore, Inc. (KinaseProfiler service)
Procedure: as §1

Pim-3 = molecular target: T36, Pim-3 (Homo sapiens, UniProt Q86V86)
T36 construct: purchased Millipore, Inc. (KinaseProfiler service)
Procedure: as §1

IGF-1R = molecular target: T37, IGF-1R (Homo sapiens, UniProt P08069)
T37 construct: purchased Millipore, Inc. (KinaseProfiler service)
Procedure: as §1

DRAK1 = molecular target: T38, DRAK1 (Homo sapiens, UniProt Q9UEE5)
T38 construct: purchased Millipore, Inc. (KinaseProfiler service)
Procedure: as §1

EphB1 = molecular target: T39, EphB1 (Homo sapiens, UniProt P54762)
T39 construct: purchased Millipore, Inc. (KinaseProfiler service)
Procedure: as §1

LOK = molecular target: T40, LOK (Homo sapiens, UniProt O94804)
T40 construct: purchased Millipore, Inc. (KinaseProfiler service)
Procedure: as §1

T13 sequence (Q8TF76 whole entry): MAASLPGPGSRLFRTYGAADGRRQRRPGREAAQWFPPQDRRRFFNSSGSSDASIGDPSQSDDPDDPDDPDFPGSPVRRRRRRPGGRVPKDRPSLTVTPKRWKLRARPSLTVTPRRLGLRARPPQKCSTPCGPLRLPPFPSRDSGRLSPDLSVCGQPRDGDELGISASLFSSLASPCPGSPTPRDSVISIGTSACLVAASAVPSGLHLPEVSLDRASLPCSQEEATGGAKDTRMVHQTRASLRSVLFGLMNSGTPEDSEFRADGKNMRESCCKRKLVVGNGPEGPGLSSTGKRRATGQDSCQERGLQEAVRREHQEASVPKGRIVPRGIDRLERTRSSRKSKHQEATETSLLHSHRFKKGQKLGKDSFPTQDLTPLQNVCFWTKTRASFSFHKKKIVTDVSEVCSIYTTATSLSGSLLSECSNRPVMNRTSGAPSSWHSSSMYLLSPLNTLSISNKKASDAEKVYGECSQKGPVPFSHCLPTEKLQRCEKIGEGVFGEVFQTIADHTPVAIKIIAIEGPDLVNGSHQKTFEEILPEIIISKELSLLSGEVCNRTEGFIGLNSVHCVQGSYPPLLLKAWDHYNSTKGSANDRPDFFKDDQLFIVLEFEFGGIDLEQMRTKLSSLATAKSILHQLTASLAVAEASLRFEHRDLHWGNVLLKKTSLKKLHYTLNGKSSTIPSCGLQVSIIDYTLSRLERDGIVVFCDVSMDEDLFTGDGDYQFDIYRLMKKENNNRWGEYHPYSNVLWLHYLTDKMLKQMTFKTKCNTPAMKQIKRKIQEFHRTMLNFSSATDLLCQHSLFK
T21 sequence (P52564 whole entry): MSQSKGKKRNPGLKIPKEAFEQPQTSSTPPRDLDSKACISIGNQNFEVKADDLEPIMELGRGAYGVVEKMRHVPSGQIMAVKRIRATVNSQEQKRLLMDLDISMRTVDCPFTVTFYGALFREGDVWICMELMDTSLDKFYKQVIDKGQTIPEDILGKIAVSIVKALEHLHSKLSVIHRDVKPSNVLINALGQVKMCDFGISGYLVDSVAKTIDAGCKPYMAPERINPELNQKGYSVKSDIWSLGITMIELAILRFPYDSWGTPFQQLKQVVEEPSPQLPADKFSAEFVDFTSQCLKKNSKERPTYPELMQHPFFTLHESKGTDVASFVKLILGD
T19 sequence (P22607 23-806): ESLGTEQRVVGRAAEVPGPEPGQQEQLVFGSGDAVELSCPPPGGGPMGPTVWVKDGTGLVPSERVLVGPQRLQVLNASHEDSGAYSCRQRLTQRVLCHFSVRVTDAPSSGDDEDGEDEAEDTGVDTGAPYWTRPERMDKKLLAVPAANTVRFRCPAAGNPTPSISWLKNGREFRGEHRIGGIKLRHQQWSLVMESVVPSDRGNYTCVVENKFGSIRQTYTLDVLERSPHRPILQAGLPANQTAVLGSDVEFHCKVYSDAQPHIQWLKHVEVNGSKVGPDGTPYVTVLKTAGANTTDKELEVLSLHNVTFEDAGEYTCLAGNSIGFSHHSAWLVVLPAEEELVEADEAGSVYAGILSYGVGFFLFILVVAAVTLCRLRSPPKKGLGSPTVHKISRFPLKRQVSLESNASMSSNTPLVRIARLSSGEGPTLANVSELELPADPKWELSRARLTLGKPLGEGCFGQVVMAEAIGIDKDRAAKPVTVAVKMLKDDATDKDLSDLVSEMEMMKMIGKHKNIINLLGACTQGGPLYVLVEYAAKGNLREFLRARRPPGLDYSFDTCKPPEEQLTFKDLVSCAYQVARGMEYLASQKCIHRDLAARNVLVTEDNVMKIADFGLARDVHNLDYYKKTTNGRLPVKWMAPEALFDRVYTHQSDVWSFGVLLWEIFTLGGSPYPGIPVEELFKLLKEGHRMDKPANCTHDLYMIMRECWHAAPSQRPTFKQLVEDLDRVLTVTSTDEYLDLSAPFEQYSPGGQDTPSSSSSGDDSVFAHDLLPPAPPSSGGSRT
T26 sequence (P80192 whole entry): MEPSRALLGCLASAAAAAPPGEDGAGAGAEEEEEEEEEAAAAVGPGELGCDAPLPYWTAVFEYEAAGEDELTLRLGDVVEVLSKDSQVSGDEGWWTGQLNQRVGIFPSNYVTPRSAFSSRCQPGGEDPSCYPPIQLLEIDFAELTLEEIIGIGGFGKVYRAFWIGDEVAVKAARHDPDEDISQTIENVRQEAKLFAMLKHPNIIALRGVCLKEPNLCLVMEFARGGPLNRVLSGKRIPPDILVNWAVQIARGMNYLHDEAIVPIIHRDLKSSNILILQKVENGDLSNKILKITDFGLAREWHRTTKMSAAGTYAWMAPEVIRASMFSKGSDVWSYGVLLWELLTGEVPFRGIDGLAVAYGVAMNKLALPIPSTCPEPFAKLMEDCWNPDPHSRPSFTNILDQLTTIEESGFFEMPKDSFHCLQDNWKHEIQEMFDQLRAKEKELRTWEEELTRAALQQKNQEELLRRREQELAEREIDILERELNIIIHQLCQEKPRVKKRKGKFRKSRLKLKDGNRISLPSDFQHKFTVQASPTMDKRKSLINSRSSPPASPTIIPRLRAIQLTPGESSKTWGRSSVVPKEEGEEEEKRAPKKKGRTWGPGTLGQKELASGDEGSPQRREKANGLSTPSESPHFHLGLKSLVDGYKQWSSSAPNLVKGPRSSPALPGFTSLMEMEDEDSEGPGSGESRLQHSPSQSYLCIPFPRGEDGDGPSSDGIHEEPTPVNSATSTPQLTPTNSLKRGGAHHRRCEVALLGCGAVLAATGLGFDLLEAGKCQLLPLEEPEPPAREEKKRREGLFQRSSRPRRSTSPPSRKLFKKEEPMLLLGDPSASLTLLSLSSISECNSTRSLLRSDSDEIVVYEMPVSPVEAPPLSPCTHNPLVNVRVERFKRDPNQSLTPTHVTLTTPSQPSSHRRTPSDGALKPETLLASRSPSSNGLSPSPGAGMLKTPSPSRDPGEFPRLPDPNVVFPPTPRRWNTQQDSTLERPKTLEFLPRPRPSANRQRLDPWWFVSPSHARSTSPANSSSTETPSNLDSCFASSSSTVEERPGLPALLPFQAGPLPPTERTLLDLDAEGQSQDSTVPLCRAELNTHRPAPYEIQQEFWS
T34 sequence (Q13554 whole entry): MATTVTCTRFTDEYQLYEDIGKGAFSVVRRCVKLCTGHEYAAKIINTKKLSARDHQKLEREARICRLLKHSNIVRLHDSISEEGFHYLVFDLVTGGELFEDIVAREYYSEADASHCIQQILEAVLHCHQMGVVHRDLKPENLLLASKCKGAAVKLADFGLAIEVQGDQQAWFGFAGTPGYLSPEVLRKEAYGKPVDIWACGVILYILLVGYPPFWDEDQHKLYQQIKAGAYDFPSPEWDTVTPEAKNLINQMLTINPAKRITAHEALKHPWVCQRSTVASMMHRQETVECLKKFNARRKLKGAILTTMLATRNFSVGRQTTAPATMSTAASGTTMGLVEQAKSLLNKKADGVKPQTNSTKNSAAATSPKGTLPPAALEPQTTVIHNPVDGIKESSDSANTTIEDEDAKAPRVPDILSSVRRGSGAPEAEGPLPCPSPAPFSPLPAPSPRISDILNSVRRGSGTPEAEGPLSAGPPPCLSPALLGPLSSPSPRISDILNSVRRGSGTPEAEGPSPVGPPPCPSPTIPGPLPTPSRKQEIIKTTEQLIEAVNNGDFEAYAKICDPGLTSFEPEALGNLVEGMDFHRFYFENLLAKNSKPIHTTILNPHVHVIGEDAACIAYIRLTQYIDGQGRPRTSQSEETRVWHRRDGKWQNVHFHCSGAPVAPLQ
T37 sequence (P08069 31-1367): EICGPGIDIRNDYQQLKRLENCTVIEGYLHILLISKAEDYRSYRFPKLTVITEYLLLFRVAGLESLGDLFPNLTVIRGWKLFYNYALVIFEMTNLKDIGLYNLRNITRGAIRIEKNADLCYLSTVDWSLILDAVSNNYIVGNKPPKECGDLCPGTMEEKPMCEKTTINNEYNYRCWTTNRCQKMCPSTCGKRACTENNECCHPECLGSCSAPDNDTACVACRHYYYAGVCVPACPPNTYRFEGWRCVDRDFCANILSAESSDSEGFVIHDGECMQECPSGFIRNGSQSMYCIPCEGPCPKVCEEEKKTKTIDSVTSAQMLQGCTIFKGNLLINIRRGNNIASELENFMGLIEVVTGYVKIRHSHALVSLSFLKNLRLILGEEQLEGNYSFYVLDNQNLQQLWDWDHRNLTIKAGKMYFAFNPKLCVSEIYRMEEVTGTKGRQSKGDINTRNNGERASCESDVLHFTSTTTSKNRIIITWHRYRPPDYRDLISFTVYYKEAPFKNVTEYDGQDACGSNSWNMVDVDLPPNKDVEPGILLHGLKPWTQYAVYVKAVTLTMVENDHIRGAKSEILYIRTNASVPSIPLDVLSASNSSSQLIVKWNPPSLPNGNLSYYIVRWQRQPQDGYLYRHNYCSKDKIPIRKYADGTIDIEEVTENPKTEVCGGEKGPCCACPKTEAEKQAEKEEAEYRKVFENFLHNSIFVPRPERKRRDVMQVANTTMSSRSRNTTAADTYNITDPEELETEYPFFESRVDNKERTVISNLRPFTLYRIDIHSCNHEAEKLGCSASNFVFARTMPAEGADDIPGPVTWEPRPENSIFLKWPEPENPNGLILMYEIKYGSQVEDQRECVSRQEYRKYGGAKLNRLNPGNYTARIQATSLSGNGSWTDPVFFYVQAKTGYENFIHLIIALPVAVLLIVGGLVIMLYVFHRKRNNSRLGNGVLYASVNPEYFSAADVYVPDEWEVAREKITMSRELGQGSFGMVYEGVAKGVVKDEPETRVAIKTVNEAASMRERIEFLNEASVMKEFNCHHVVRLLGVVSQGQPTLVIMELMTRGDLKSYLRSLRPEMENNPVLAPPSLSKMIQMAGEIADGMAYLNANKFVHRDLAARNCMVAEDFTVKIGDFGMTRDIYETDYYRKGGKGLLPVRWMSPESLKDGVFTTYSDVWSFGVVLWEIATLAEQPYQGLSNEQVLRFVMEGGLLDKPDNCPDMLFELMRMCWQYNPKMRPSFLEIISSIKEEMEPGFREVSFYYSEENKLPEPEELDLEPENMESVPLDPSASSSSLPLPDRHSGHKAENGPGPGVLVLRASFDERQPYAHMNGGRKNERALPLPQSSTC

COCCCc1cc(Cl)c(Cl)cc1NC(=O)Nc1c(C)c(-c2cnn(C)c2)nn1-c1ccccc1 [Example 15, 1-(4,5-dichloro-2-(3-methoxypropyl)phenyl)-3-(1′,4-dimethyl-1-phenyl-1H,1′H-[3,4′-bipyrazol]-5-yl)urea]
Avg POC (CDK1/cyclinB): 97 POC
Avg POC (p38beta): 106.5 POC
Avg POC (PRKG1alpha): 113.5 POC
Avg POC (CAMK4): 132 POC
Avg POC (CDK6/cyclinD3): 111 POC
Avg POC (MST2): 101.5 POC
Avg POC (SRPK2): 113.5 POC
Avg POC (PKCeta): 105.5 POC
Avg POC (KDR): 136 POC
Avg POC (MARK1): 107 POC
Avg POC (HIPK2): 99.5 POC
Avg POC (RIPK2): 102 POC
Avg POC (Haspin): 121.5 POC
Avg POC (MINK): 121.5 POC
Avg POC (PAK5): 132.5 POC
Avg POC (ROCK-I): 117.5 POC
Avg POC (AKT3): 119.5 POC
Avg POC (PDGFRalpha): 117.5 POC
Avg POC (FGFR3): 106.5 POC
Avg POC (WNK3): 108.5 POC
Avg POC (MKK6): 124.5 POC
Avg POC (PAK4): 110.5 POC
Avg POC (EphB2): 112.5 POC
Avg POC (CK1_y): 96.5 POC
Avg POC (EphA4): 115 POC
Avg POC (CAMK1d): 103 POC
Avg POC (MLK1): 110.5 POC
Avg POC (CDK9/cyclinT1): 112.5 POC
Avg POC (TrkB): 105 POC
Avg POC (PASK): 188 POC
Avg POC (NEK6): 111.5 POC
Avg POC (LKB1): 90.5 POC
Avg POC (MAPKAP-K2): 129.5 POC
Avg POC (HIPK3): 101 POC
Avg POC (CAMK2b): 101.5 POC
Avg POC (CDK2/cyclinE): 106.5 POC
Avg POC (Pim-3): 105.5 POC
Avg POC (IGF-1R): 85 POC
Avg POC (DRAK1): 135.5 POC
Avg POC (EphB1): 130 POC
Avg POC (LOK): 135 POC
